Measured values published in ChEMBL document CHEMBL3352542, “Synthesis, biological evaluation and molecular modeling study of 2-(1,3,4-thiadiazolyl-thio and 4-methyl-thiazolyl-thio)-quinazolin-4-ones as a new class of DHFR inhibitors” (Bioorg Med Chem Lett, 2014).
Activity calls are given as the source filed them. The calls are words filed in the database; no cut-off is given here.

Tests used:
Dihydrofolate reductase = biological target: T1, Dihydrofolate reductase (Bos taurus, UniProt P00376); test: Inhibition of bovine liver DHFR
T1 sequence (P00376 whole entry): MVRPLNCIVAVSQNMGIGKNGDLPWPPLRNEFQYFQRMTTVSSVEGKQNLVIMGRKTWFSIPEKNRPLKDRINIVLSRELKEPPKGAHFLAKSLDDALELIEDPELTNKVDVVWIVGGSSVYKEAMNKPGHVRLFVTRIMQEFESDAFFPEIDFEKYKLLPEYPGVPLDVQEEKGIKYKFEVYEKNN

Staphylococcus aureus = test: Antimicrobial activity against Staphylococcus aureus assessed as inhibition zone at 200 ug/disk after 24 hrs by disc-diffusion method; format: functional; details: read-out: IZ
Bacillus subtilis = test: Antimicrobial activity against Bacillus subtilis assessed as inhibition zone at 200 ug/disk after 24 hrs by disc-diffusion method; format: functional; details: read-out: IZ
Escherichia coli = test: Antimicrobial activity against Escherichia coli assessed as inhibition zone at 200 ug/disk after 24 hrs by disc-diffusion method; format: functional; details: read-out: IZ
Pseudomonas aeruginosa = test: Antimicrobial activity against Pseudomonas aeruginosa assessed as inhibition zone at 200 ug/disk after 24 hrs by disc-diffusion method; format: functional; details: read-out: IZ
Candida albicans = test: Antimicrobial activity against Candida albicans assessed as inhibition zone at 200 ug/disk after 24 hrs by disc-diffusion method; format: functional; details: read-out: IZ
CCRF-CEM = test: Growth inhibition of human CCRF-CEM cells at 10 uM after 48 hrs; format: functional
HL-60(TB) = test: Growth inhibition of human HL-60(TB) cells at 10 uM after 48 hrs; format: functional
K562 = test: Growth inhibition of human K562 cells at 10 uM after 48 hrs; format: functional
MOLT-4 = test: Growth inhibition of human MOLT4 cells at 10 uM after 48 hrs; format: functional
RPMI-8226 = test: Growth inhibition of human RPMI8226 cells at 10 uM after 48 hrs; format: functional
SR = test: Growth inhibition of human SR cells at 10 uM after 48 hrs; format: functional
A549 = test: Growth inhibition of human A549 cells at 10 uM after 48 hrs; format: functional
HOP-92 = test: Growth inhibition of human HOP92 cells at 10 uM after 48 hrs; format: functional
NCI-H226 = test: Growth inhibition of human NCI-H226 cells at 10 uM after 48 hrs; format: functional
NCI-H23 = test: Growth inhibition of human NCI-H23 cells at 10 uM after 48 hrs; format: functional
NCI-H460 = test: Growth inhibition of human NCI-H460 cells at 10 uM after 48 hrs; format: functional
NCI-H522 = test: Growth inhibition of human NCI-H522 cells at 10 uM after 48 hrs; format: functional
COLO 205 = test: Growth inhibition of human COLO205 cells at 10 uM after 48 hrs; format: functional
HCC 2998 = test: Growth inhibition of human HCC2998 cells at 10 uM after 48 hrs; format: functional
HCT-116 = test: Growth inhibition of human HCT116 cells at 10 uM after 48 hrs; format: functional
HCT-15 = test: Growth inhibition of human HCT15 cells at 10 uM after 48 hrs; format: functional
HT-29 = test: Growth inhibition of human HT-29 cells at 10 uM after 48 hrs; format: functional
KM12 = test: Growth inhibition of human KM12 cells at 10 uM after 48 hrs; format: functional
SW-620 = test: Growth inhibition of human SW620 cells at 10 uM after 48 hrs; format: functional
SF-268 = test: Growth inhibition of human SF268 cells at 10 uM after 48 hrs; format: functional
SF-295 = test: Growth inhibition of human SF295 cells at 10 uM after 48 hrs; format: functional
SF-539 = test: Growth inhibition of human SF539 cells at 10 uM after 48 hrs; format: functional
SNB-19 = test: Growth inhibition of human SNB19 cells at 10 uM after 48 hrs; format: functional
SNB-75 = test: Growth inhibition of human SNB75 cells at 10 uM after 48 hrs; format: functional
U-251 = test: Growth inhibition of human U251 cells at 10 uM after 48 hrs; format: functional
LOX IMVI = test: Growth inhibition of human LOXIMVI cells at 10 uM after 48 hrs; format: functional
Malme-3M = test: Growth inhibition of human MALME-3M cells at 10 uM after 48 hrs; format: functional
M14 = test: Growth inhibition of human M14 cells at 10 uM after 48 hrs; format: functional
MDA-MB-435 = test: Growth inhibition of human MDA-MB-435 cells at 10 uM after 48 hrs; format: functional
SK-MEL-5 = test: Growth inhibition of human SK-MEL-5 cells at 10 uM after 48 hrs; format: functional
UACC-257 = test: Growth inhibition of human UACC257 cells at 10 uM after 48 hrs; format: functional
UACC-62 = test: Growth inhibition of human UACC62 cells at 10 uM after 48 hrs; format: functional
OVCAR-3 = test: Growth inhibition of human OVCAR3 cells at 10 uM after 48 hrs; format: functional
OVCAR-4 = test: Growth inhibition of human OVCAR4 cells at 10 uM after 48 hrs; format: functional
OVCAR-5 = test: Growth inhibition of human OVCAR5 cells at 10 uM after 48 hrs; format: functional
OVCAR-8 = test: Growth inhibition of human OVCAR8 cells at 10 uM after 48 hrs; format: functional
NCI/ADR-RES = test: Growth inhibition of human NCI-ADR-RES cells at 10 uM after 48 hrs; format: functional
786-0 = test: Growth inhibition of human 786-0 cells at 10 uM after 48 hrs; format: functional
A498 = test: Growth inhibition of human A498 cells at 10 uM after 48 hrs; format: functional
ACHN = test: Growth inhibition of human ACHN cells at 10 uM after 48 hrs; format: functional
CAKI-1 = test: Growth inhibition of human CAKI-1 cells at 10 uM after 48 hrs; format: functional
RXF 393 = test: Growth inhibition of human RXF393 cells at 10 uM after 48 hrs; format: functional
SN12C = test: Growth inhibition of human SN12C cells at 10 uM after 48 hrs; format: functional
TK-10 = test: Growth inhibition of human TK10 cells at 10 uM after 48 hrs; format: functional
UO-31 = test: Growth inhibition of human UO31 cells at 10 uM after 48 hrs; format: functional
PC-3 = test: Growth inhibition of human PC3 cells at 10 uM after 48 hrs; format: functional
MCF7 = test: Growth inhibition of human MCF7 cells at 10 uM after 48 hrs; format: functional
MDA-MB-231 = test: Growth inhibition of human MDA-MB-231 cells at 10 uM after 48 hrs; format: functional
Hs-578T = test: Growth inhibition of human Hs 578T cells at 10 uM after 48 hrs; format: functional
BT-549 = test: Growth inhibition of human BT549 cells at 10 uM after 48 hrs; format: functional
T47D = test: Growth inhibition of human T47D cells at 10 uM after 48 hrs; format: functional
MDA-MB-468 = test: Growth inhibition of human MDA-MB-468 cells at 10 uM after 48 hrs; format: functional

Cc1ccc2nc(Sc3nnc(N)s3)n(Cc3ccccc3)c(=O)c2c1
IC50 (Dihydrofolate reductase): 2 µM | zone of inhibition at 200 µg/disc (Staphylococcus aureus): 8 mm | zone of inhibition at 200 µg/disc (Bacillus subtilis): 8 mm | zone of inhibition at 200 µg/disc (Escherichia coli): 8 mm | zone of inhibition at 200 µg/disc (Pseudomonas aeruginosa): 8 mm | zone of inhibition at 200 µg/disc (Candida albicans): 8 mm | growth inhibition (GI) (CCRF-CEM): inactive | growth inhibition (GI) (HL-60(TB)): inactive | growth inhibition (GI) (K562): inactive | growth inhibition (GI) (MOLT-4): inactive | growth inhibition (GI) (RPMI-8226): inactive | growth inhibition (GI) (SR): inactive | growth inhibition (GI) (A549): inactive | growth inhibition (GI) (HOP-92): inactive | growth inhibition (GI) (NCI-H226): inactive | growth inhibition (GI) (NCI-H23): inactive | growth inhibition (GI) (NCI-H460): inactive | growth inhibition (GI) (NCI-H522): inactive | growth inhibition (GI) (COLO 205): inactive | growth inhibition (GI) (HCC 2998): inactive | growth inhibition (GI) (HCT-116): inactive | growth inhibition (GI) (HCT-15): inactive | growth inhibition (GI) (HT-29): inactive | growth inhibition (GI) (KM12): inactive | growth inhibition (GI) (SW-620): inactive | growth inhibition (GI) (SF-268): inactive | growth inhibition (GI) (SF-295): inactive | growth inhibition (GI) (SF-539): inactive | growth inhibition (GI) (SNB-19): inactive | growth inhibition (GI) (SNB-75): inactive | growth inhibition (GI) (U-251): inactive | growth inhibition (GI) (LOX IMVI): inactive | growth inhibition (GI) (Malme-3M): inactive | growth inhibition (GI) (M14): inactive | growth inhibition (GI) (MDA-MB-435): inactive | growth inhibition (GI) (SK-MEL-5): inactive | growth inhibition (GI) (UACC-257): inactive | growth inhibition (GI) (UACC-62): inactive | growth inhibition (GI) (OVCAR-3): inactive | growth inhibition (GI) (OVCAR-4): inactive | growth inhibition (GI) (OVCAR-5): inactive | growth inhibition (GI) (OVCAR-8): inactive | growth inhibition (GI) (NCI/ADR-RES): inactive | growth inhibition (GI) (786-0): inactive | growth inhibition (GI) (A498): inactive | growth inhibition (GI) (ACHN): inactive | growth inhibition (GI) (CAKI-1): inactive | growth inhibition (GI) (RXF 393): inactive | growth inhibition (GI) (SN12C): inactive | growth inhibition (GI) (TK-10): inactive | growth inhibition (GI) (UO-31): inactive | growth inhibition (GI) (PC-3): inactive | growth inhibition (GI) (MCF7): inactive | growth inhibition (GI) (MDA-MB-231): inactive | growth inhibition (GI) (Hs-578T): inactive | growth inhibition (GI) (BT-549): inactive | growth inhibition (GI) (T47D): inactive | growth inhibition (GI) (MDA-MB-468): inactive

Cc1ccc2nc(Sc3sc(N)nc3C)n(-c3ccccc3)c(=O)c2c1
IC50 (Dihydrofolate reductase): 5 µM | zone of inhibition at 200 µg/disc (Staphylococcus aureus): 8 mm | zone of inhibition at 200 µg/disc (Bacillus subtilis): 8 mm | zone of inhibition at 200 µg/disc (Escherichia coli): 8 mm | zone of inhibition at 200 µg/disc (Pseudomonas aeruginosa): 8 mm | zone of inhibition at 200 µg/disc (Candida albicans): 8 mm | growth inhibition (GI) (CCRF-CEM): inactive | growth inhibition (GI) (HL-60(TB)): inactive | growth inhibition (GI) (K562): inactive | growth inhibition (GI) (MOLT-4): inactive | growth inhibition (GI) (RPMI-8226): inactive | growth inhibition (GI) (SR): inactive | growth inhibition (GI) (A549): inactive | growth inhibition (GI) (HOP-92): inactive | growth inhibition (GI) (NCI-H226): inactive | growth inhibition (GI) (NCI-H23): inactive | growth inhibition (GI) (NCI-H460): inactive | growth inhibition (GI) (NCI-H522): inactive | growth inhibition (GI) (COLO 205): inactive | growth inhibition (GI) (HCC 2998): inactive | growth inhibition (GI) (HCT-116): inactive | growth inhibition (GI) (HCT-15): inactive | growth inhibition (GI) (HT-29): inactive | growth inhibition (GI) (KM12): inactive | growth inhibition (GI) (SW-620): inactive | growth inhibition (GI) (SF-268): inactive | growth inhibition (GI) (SF-295): inactive | growth inhibition (GI) (SF-539): inactive | growth inhibition (GI) (SNB-19): inactive | growth inhibition (GI) (SNB-75): inactive | growth inhibition (GI) (U-251): inactive | growth inhibition (GI) (LOX IMVI): inactive | growth inhibition (GI) (Malme-3M): inactive | growth inhibition (GI) (M14): inactive | growth inhibition (GI) (MDA-MB-435): inactive | growth inhibition (GI) (SK-MEL-5): inactive | growth inhibition (GI) (UACC-257): inactive | growth inhibition (GI) (UACC-62): inactive | growth inhibition (GI) (OVCAR-3): inactive | growth inhibition (GI) (OVCAR-4): inactive | growth inhibition (GI) (OVCAR-5): inactive | growth inhibition (GI) (OVCAR-8): inactive | growth inhibition (GI) (NCI/ADR-RES): inactive | growth inhibition (GI) (786-0): inactive | growth inhibition (GI) (A498): inactive | growth inhibition (GI) (ACHN): inactive | growth inhibition (GI) (CAKI-1): inactive | growth inhibition (GI) (RXF 393): inactive | growth inhibition (GI) (SN12C): inactive | growth inhibition (GI) (TK-10): inactive | growth inhibition (GI) (UO-31): inactive | growth inhibition (GI) (PC-3): inactive | growth inhibition (GI) (MCF7): inactive | growth inhibition (GI) (MDA-MB-231): inactive | growth inhibition (GI) (Hs-578T): inactive | growth inhibition (GI) (BT-549): inactive | growth inhibition (GI) (T47D): inactive | growth inhibition (GI) (MDA-MB-468): inactive
